Source: patent publication US4853467A, “Nitrogen containing derivatives of epipodophyllotoxin glucosides” (Bristol-Myers Company, priority 1987, dated 1989)
≈ marks a conversion by molar mass, not a printed value.

What was measured:
P388 murine leukemia = assay: P388 Leukemia, antitumor activity against murine P388 leukemia; assay type: in vivo, murine (female CDF1 mice); conditions: i.p. on days 5 and 8; 10^6 P388 cells i.p.; maximum effect over doses; >=125 considered significant; etoposide values in parentheses are positive control in same experiment
Description: Female CDF1 mice were implanted intraperitoneally with a tumor inoculum of 10^6 ascites cells of P388 murine leukemia and treated with various doses of a test compound; four mice were used for each dose level and ten were used as saline-treated control. The compounds were administered by intraperitoneal injection on days 5 and 8 (day 1 being the day of tumor implantation). Antitumor activity was expressed as % T/C which is the ratio of the median survival time (MST) of drug-treated group to the MST of saline-treated control group. A compound showing a % T/C value of 125 or greater is generally considered to have significant antitumor activity in the P388 test. The experiment lasted 31 days at the end of which time the number of survivors was noted. Table I presents the results of the above-described evaluation; only the maximum % T/C and the dose showing the maximum effect are reported.

B16-F10 murine melanoma = assay: In vitro cytotoxicity assay, B16-F10 murine melanoma; assay type: cell-based; conditions: two values per compound, four-fold serial dilution; for In vitro cytotoxicity IC50, B-16-F10: B16-F10 murine melanoma; for IC50: Mus musculus, B16-F10, B16-F10 murine melanoma, read-out: In vitro cytotoxicity IC50, B-16-F10
Description: (§1) The in vitro cytotoxicity assay involved growing various mammalian tumor cells, including human tumor cells, on microtitre plates employing established tissue culture methods. The concentration of each compound required to inhibit cell growth by 50% (IC50) was then determined by a four-fold serial dilution technique. The validity of the method has been supported by a report published in the "Proceedings of the American Association for Cancer Research", 1984, 25:1891 (Abst. No. 328). Tumor cells of the following types were employed for each compound tested: B16-F10 murine melanoma; Moser human colon; SW900 human lung and three human colon tumor cell lines namely HCT-116, HCT-VM, and HCT-VP, the latter two being resistant to teniposide (VM) and etoposide (VP), respectively. IC50 values less than 500 μg/ml are a positive indicator of antitumor activity. Table II presents IC50 values of various compounds of the present invention against the aforementioned cell lines.

HCT-116 = assay: In vitro cytotoxicity assay, HCT-116 human colon tumor; assay type: cell-based; conditions: two values per compound, four-fold serial dilution; for In vitro cytotoxicity IC50, HCT-116: HCT-116 human colon; for IC50: Homo sapiens, HCT-116, HCT-116 human colon
Description: as §1

HCT/VP35 = assay: In vitro cytotoxicity assay, HCT/VP35 etoposide-resistant human colon tumor; assay type: cell-based; conditions: two values per compound, four-fold serial dilution; for In vitro cytotoxicity IC50, HCT/VP35: HCT/VP35, resistant to etoposide; for IC50: Homo sapiens, HCT/VP35, HCT/VP35, resistant to etoposide
Description: as §1

Moser human colon = assay: In vitro cytotoxicity assay, Moser human colon; assay type: cell-based; conditions: two values per compound, four-fold serial dilution; for IC50: Homo sapiens
Description: as §1

SW900 human lung = assay: In vitro cytotoxicity assay, SW900 human lung; assay type: cell-based; conditions: two values per compound, four-fold serial dilution; for IC50: Homo sapiens, SW900, SW900 human lung; for In vitro cytotoxicity IC50, SW900: SW900 human lung
Description: as §1

HCT/VM34 = assay: In vitro cytotoxicity assay, HCT/VM34 teniposide-resistant human colon tumor; assay type: cell-based; conditions: HCT/VM34, resistant to teniposide, two values per compound, four-fold serial dilution; for IC50: Homo sapiens
Description: as §1

SMILES | Max % T/C (ratio of median survival time of drug-treated group to saline-treated control group) (P388 murine leukemia) [%] | In vitro cytotoxicity IC50, B-16-F10 (B16-F10 murine melanoma) [µg/mL] | IC50 (B16-F10 murine melanoma) [µg/mL] | In vitro cytotoxicity IC50, HCT-116 (HCT-116) [µg/mL] | IC50 (HCT-116) [µg/mL] | In vitro cytotoxicity IC50, HCT/VP35 (HCT/VP35) [µg/mL] | IC50 (HCT/VP35) [µg/mL] | IC50 (Moser human colon) [µg/mL] | In vitro cytotoxicity IC50, MOSER (Moser human colon) [µg/mL] | IC50 (SW900 human lung) [µg/mL] | In vitro cytotoxicity IC50, SW900 (SW900 human lung) [µg/mL] | In vitro cytotoxicity IC50, HCT/VM34 (HCT/VM34) [µg/mL] | IC50 (HCT/VM34) [µg/mL]
CON=C1C=C([C@@H]2c3cc4c(cc3[C@@H](O[C@@H]3O[C@@H]5CO[C@@H](C)O[C@H]5[C@H](O)[C@H]3O)[C@H]3COC(=O)[C@@H]32)OCO4)C=C(OC)C1=O [Example 1, Etoposide-ortho-quinone-3'-O-methyloxime] | 200 |  |  |  |  |  |  |  |  |  |  |  | 
COc1ccc(C=Nc2cc([C@@H]3c4cc5c(cc4[C@@H](O[C@@H]4O[C@@H]6CO[C@@H](C)O[C@H]6[C@H](O)[C@H]4O)[C@H]4COC(=O)[C@H]34)OCO5)cc(OC)c2O)cc1 [Example 20, 3'-Desmethoxy-3'-[[(4-methoxy)phenyl]methylene]amino etoposide] | 175 | 19.8 | 13.3 (≈ 19.2 µM) | 5.6 | 9.6 (≈ 13.9 µM) | 61 | 35 (≈ 50.6 µM) |  |  |  |  |  | 
COC1=CC([C@@H]2c3cc4c(cc3[C@@H](O[C@@H]3O[C@@H]5CO[C@@H](C)O[C@H]5[C@H](O)[C@H]3O)[C@H]3COC(=O)[C@@H]32)OCO4)=CC(=NOCc2ccccc2)C1=O [Example 2, Etoposide-ortho-quinone-3'-O-benzyloxime] | 242 |  |  |  |  |  |  |  |  |  |  |  | 
COc1cc([C@@H]2c3cc4c(cc3[C@@H](O[C@@H]3O[C@@H]5CO[C@@H](C)O[C@H]5[C@H](O)[C@H]3O)[C@H]3COC(=O)[C@H]23)OCO4)cc([N+](=O)[O-])c1O [Example 24, 3'-Desmethoxy-3'-nitro etoposide] | > 140 | 50 | 41 (≈ 67.9 µM) | 53 | 43 (≈ 71.2 µM) |  |  | 92 (≈ 152 µM) | 84 | 66 (≈ 109 µM) | 90 | 82 | 56 (≈ 92.8 µM)
COc1cc([C@@H]2c3cc4c(cc3[C@@H](O[C@@H]3O[C@@H]5CO[C@@H](C)O[C@H]5[C@H](O)[C@H]3O)[C@H]3COC(=O)[C@H]23)OCO4)cc(NC(C)=O)c1O [Example 7, 3'-Acetylamino-3'-desmethoxy etoposide] | 135 | 63 | 54 (≈ 87.7 µM) | 63 | 60 (≈ 97.5 µM) | 83 | 90 (≈ 146 µM) |  |  |  |  | 65 | 63 (≈ 102 µM)
COc1cc([C@@H]2c3cc4c(cc3[C@@H](O[C@@H]3O[C@@H]5CO[C@@H](C)O[C@H]5[C@H](O)[C@H]3O)[C@H]3COC(=O)[C@H]23)OCO4)cc(N=Cc2cc(OC)c(OC)c(OC)c2)c1O [Example 21, 3'-Desmethoxy-3'-[[(3,4,5-trimethoxy)phenyl]methylene]amino etoposide] | 225 | 4.3 | 5.3 (≈ 7.05 µM) |  |  | 15.6 | 26 (≈ 34.6 µM) | 25 (≈ 33.3 µM) | 27 |  |  | 10.6 | 14 (≈ 18.6 µM)
COc1cc([C@@H]2c3cc4c(cc3[C@@H](O[C@@H]3O[C@@H]5CO[C@@H](C)O[C@H]5[C@H](O)[C@H]3O)[C@H]3COC(=O)[C@H]23)OCO4)cc(N=Cc2ccco2)c1O [Example 18, 3'-Desmethoxy-3'-[(2-furyl)methylene]amino etoposide] | 200 | 15.3 | 12.5 (≈ 19.2 µM) | 18.4 | 29 (≈ 44.5 µM) |  |  | 40 (≈ 61.4 µM) | 37 | 42 (≈ 64.5 µM) | 40 |  | 
